Measurements: ChEMBL document CHEMBL4321865, “Discovery of Novel Inhibitors of LpxC Displaying Potent in Vitro Activity against Gram-Negative Bacteria” (J Med Chem, 2020)
Values after ≈ are worked out from the molar mass of the structure shown.

Assays:
[1] = mouse, in vivo, sc, 50 mg/kg
Pseudomonas aeruginosa [2] = experiment: microbe, parasite or virus in culture; conditions: ATCC 27853
Description: Antimicrobial activity against Pseudomonas aeruginosa ATCC 27853 by broth microdilution method

[3] = system: T1, UDP-3-O-acyl-N-acetylglucosamine deacetylase (Pseudomonas aeruginosa (strain ATCC 15692 / PAO1 / 1C / PRS 101 / LMG12228)), P47205 [C40S]
T1 sequence (whole entry): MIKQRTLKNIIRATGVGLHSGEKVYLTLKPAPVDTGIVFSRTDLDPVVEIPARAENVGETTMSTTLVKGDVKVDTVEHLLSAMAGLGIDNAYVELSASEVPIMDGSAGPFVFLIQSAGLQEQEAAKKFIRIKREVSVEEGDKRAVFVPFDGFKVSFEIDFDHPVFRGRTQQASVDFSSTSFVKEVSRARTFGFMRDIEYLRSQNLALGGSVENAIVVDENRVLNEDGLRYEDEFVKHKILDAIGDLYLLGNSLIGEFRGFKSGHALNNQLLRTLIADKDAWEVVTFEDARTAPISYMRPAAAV

in vivo = conditions: NMRI/ICR CD-1, mouse, sc, 50 mg/kg
Pseudomonas aeruginosa [4] = experiment: microbe, parasite or virus in culture; conditions: PAO1
Description: Antimicrobial activity against wild-type Pseudomonas aeruginosa PAO1 by broth microdilution method

[5] = Cmax in NMRI/ICR CD-1 mouse at 50 mg/kg, sc by LC-MS/MS analysis; type: ADME, organism-based; set-up: dose 50 mg/kg, route subcutaneous; conditions: in vivo
Escherichia coli [6] = experiment: microbe, parasite or virus in culture; conditions: ATCC 25922
Description: Antibacterial activity against wild-type Escherichia coli ATCC 25922 by broth microdilution method

[7] = Tmax in NMRI/ICR CD-1 mouse at 50 mg/kg, sc by LC-MS/MS analysis; type: ADME, organism-based; conditions: in vivo
physchem [8] = conditions: DMSO, pH 4
Description: Solubility of the compound in DMSO at pH 4 incubated for 24 hrs by LC-UV method

Mus musculus [9] = experiment: Apparent unbound clearance in NMRI/ICR CD-1 mouse at 50 mg/kg, sc by LC-MS/MS analysis; type: ADME, organism-based; conditions: in vivo
[10] = mouse, plasma, 1 µM
Description: Protein binding in mouse plasma assessed as fraction unbound at 1 uM by equilibrium dialysis method

Klebsiella pneumoniae = experiment: microbe, parasite or virus in culture; conditions: T 6474
Description: Antibacterial activity against multi-drug resistant Klebsiella pneumoniae T 6474 by broth microdilution method

Escherichia coli [11] = experiment: Antibacterial activity against Escherichia coli infected in cyclophosphamide-induced NMRI/ICR CD-1 mouse model of neutropenic thigh infection assessed as reduction in thigh bacterial load at 150 mg/kg, sc measured after 22 hrs relative to control; type: functional
Escherichia coli [12] = experiment: Antibacterial activity against Escherichia coli infected in cyclophosphamide-induced NMRI/ICR CD-1 mouse model of neutropenic thigh infection assessed as reduction in thigh bacterial load at 50 mg/kg, sc measured after 22 hrs relative to control; type: functional
[13] = Apparent clearance in NMRI/ICR CD-1 mouse at 50 mg/kg, sc by LC-MS/MS analysis; type: ADME, organism-based; conditions: in vivo
[14] = system: T2, UDP-3-O-acyl-N-acetylglucosamine deacetylase (Escherichia coli K-12), P0A725 [C125S]
T2 sequence (whole entry): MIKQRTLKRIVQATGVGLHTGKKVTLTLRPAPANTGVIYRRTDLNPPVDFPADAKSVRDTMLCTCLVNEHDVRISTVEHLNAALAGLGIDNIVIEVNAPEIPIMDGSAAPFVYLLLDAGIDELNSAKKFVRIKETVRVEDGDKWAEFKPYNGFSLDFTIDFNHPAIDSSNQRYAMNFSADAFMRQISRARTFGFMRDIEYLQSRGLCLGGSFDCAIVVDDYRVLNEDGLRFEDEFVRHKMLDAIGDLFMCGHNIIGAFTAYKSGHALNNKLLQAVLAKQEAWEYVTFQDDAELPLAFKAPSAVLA

[15] = Tmax in NMRI/ICR CD-1 mouse at 150 mg/kg, sc by LC-MS/MS analysis; type: ADME, organism-based; conditions: in vivo
Mus musculus [16] = experiment: Apparent unbound clearance in NMRI/ICR CD-1 mouse at 150 mg/kg, sc by LC-MS/MS analysis; type: ADME, organism-based; conditions: in vivo
[17] = Free AUC (0 to 24 hrs) in NMRI/ICR CD-1 mouse at 150 mg/kg, sc by LC-MS/MS analysis; type: ADME, organism-based; conditions: in vivo
physchem [18] = conditions: DMSO, pH 7
Description: Solubility of the compound in DMSO at pH 7 incubated for 24 hrs by LC-UV method

[19] = AUC (0 to 24 hrs) in NMRI/ICR CD-1 mouse at 150 mg/kg, sc by LC-MS/MS analysis; type: ADME, organism-based; set-up: dose 150 mg/kg, time < 24 hr, route subcutaneous; conditions: in vivo
[20] = Apparent clearance in NMRI/ICR CD-1 mouse at 150 mg/kg, sc by LC-MS/MS analysis; type: ADME, organism-based; conditions: in vivo
physchem [21] = conditions: DMSO, pH 9
Description: Solubility of the compound in DMSO at pH 9 incubated for 24 hrs by LC-UV method

Pseudomonas aeruginosa [22] = experiment: Antimicrobial activity against Pseudomonas aeruginosa PA2616 harboring delta mexAB-OprM mutant by broth microdilution method; type: functional
physchem [23] = conditions: n-octanol/phosphate buffered saline, pH 7.4
Description: n-Octanol/phosphate buffered saline partition coefficient, log D of the compound at pH 7.4 by LC-UV method

Structure (SMILES) | MIC (Pseudomonas aeruginosa [2]) | ΔTm [3] | MIC (Pseudomonas aeruginosa [4]) | MIC (Escherichia coli [6]) | solubility at 24 h (physchem [8]) | MIC (Klebsiella pneumoniae) | ΔTm [14] | solubility at 24 h (physchem [18]) | solubility at 24 h (physchem [21]) | MIC (Pseudomonas aeruginosa [22]) | logD (physchem [23]) | also measured
C[C@@](CCN1Cc2cc(C#CC#C[C@H]3C[C@@H]3CO)cn2C1=O)(C(=O)NO)S(C)(=O)=O | 0.25 µg/mL (≈ 0.577 µM) | 13.2 °C | 0.5 µg/mL (≈ 1.15 µM) | 0.12 µg/mL (≈ 0.277 µM) | 600 µg/mL (≈ 1380 µM) | 0.25 µg/mL (≈ 0.577 µM) | 11.2 °C |  |  |  |  | fAUC [1]: 0.37 µg·h/mL; AUC(0-t) at 24 h (in vivo): 41000 ng·h/mL; Cmax [5]: 22600 ng/mL; Tmax [7]: 30 min; CLu/F (Mus musculus [9]): 2300 mL/min/kg; Fu [10]: 0.009%; fold change (FC) (Escherichia coli [11]): 0.8; fold change (FC) (Escherichia coli [12]): 1.8; CL/F [13]: 20.2 mL/min/kg
C[C@@](CCN1Cc2cc(C#CC#CC3(N)CC3)cn2C1=O)(C(=O)NO)S(C)(=O)=O.Cl | 0.5 µg/mL | 11.6 °C | 0.5 µg/mL | 0.25 µg/mL | 571 µg/mL | 0.25 µg/mL | 10 °C | 418 µg/mL | 536 µg/mL |  |  | Tmax [15]: 30 min; Cmax [5]: 8600 ng/mL; CLu/F (Mus musculus [16]): 716 mL/min/kg; fAUC [17]: 1.16 µg·h/mL; AUC(0-t) at 24 h [19]: 14900 ng·h/mL; Fu [10]: 0.078%; fold change (FC) (Escherichia coli [11]): 1.8; fold change (FC) (Escherichia coli [12]): 2.8; CL/F [20]: 55.9 mL/min/kg
COc1ccc(-c2cnc3c(c2)CN(CCC(C)(C(=O)NO)S(C)(=O)=O)C3=O)c(F)c1 (racemic) | 32 µg/mL (≈ 70.9 µM) | 7 °C | > 32 µg/mL | 32 µg/mL (≈ 70.9 µM) |  | > 32 µg/mL | 5.6 °C |  |  | 16 µg/mL (≈ 35.4 µM) |  | 
CC(C)(O)C#CC#Cc1cc2c(s1)C(=O)N(CC[C@](C)(C(=O)NO)S(C)(=O)=O)C2 | 1 µg/mL (≈ 2.28 µM) | 13.6 °C | 2 µg/mL (≈ 4.56 µM) | 0.5 µg/mL (≈ 1.14 µM) | > 740 µg/mL | 2 µg/mL (≈ 4.56 µM) | 9.9 °C | > 740 µg/mL | > 740 µg/mL |  | 1.2 | 
C[C@@](CCN1Cc2cc(C#CC#C[C@H]3C[C@@H]3CO)sc2C1=O)(C(=O)NO)S(C)(=O)=O | 0.5 µg/mL (≈ 1.11 µM) | 15 °C | 0.5 µg/mL (≈ 1.11 µM) | 0.15 µg/mL (≈ 0.333 µM) | 522 µg/mL (≈ 1160 µM) | 0.25 µg/mL (≈ 0.555 µM) | 12.2 °C | 603 µg/mL (≈ 1340 µM) | > 760 µg/mL |  | 1.3 | 
C[C@@](CCN1Cc2cc(C#Cc3ccc([C@H](O)CO)cc3)sc2C1=O)(C(=O)NO)S(C)(=O)=O | 1 µg/mL (≈ 2.03 µM) | 14.3 °C | 2 µg/mL (≈ 4.06 µM) | 0.5 µg/mL (≈ 1.02 µM) | 230 µg/mL (≈ 467 µM) | 1 µg/mL (≈ 2.03 µM) | 12.1 °C | 300 µg/mL (≈ 609 µM) | 814 µg/mL (≈ 1650 µM) |  | 0.8 | 
COc1ccc(-c2ccc3c(c2)oc(=O)n3CC[C@](C)(C(=O)NO)S(C)(=O)=O)c(F)c1 | 8 µg/mL (≈ 17.7 µM) | 11 °C | 4 µg/mL (≈ 8.84 µM) | 0.5 µg/mL (≈ 1.11 µM) |  | 4 µg/mL (≈ 8.84 µM) | 8.2 °C | 7 µg/mL (≈ 15.5 µM) | 66 µg/mL (≈ 146 µM) | ≤ 0.06 µg/mL | 2.2 | 
COc1ccc(-c2cc3n(c2)C(=O)N(CC[C@](C)(C(=O)NO)S(C)(=O)=O)C3)c(F)c1 | 1 µg/mL (≈ 2.28 µM) | 11.5 °C | 0.5 µg/mL (≈ 1.14 µM) | 0.12 µg/mL (≈ 0.273 µM) |  | 0.25 µg/mL (≈ 0.569 µM) | 8.1 °C | 37 µg/mL (≈ 84.2 µM) | 302 µg/mL (≈ 687 µM) | 0.12 µg/mL (≈ 0.273 µM) | 1.8 | 
